Reference: PubChem BioAssay (NCI)
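Tested at 5 concentrations; 48 h exposure; 96-well plates; endpoints linearly interpolated, else capped at highest concentration. GI50 is the concentration that inhibits growth by half. TGI: concentration producing complete growth inhibition.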

Assays:
Experiment in all cases: NCI anticancer screen, dose series, 48 h
HOP-62 NSCLC = test system: HOP-62 NSCLC
MALME-3M melanoma = test system: MALME-3M melanoma
ACHN renal = test system: ACHN renal
T-47D breast = test system: T-47D breast
NCI/ADR-RES ovarian = test system: NCI/ADR-RES ovarian
M14 melanoma = test system: M14 melanoma
PC-3 prostate = test system: PC-3 prostate
SK-MEL-5 melanoma = test system: SK-MEL-5 melanoma
SNB-75 CNS = test system: SNB-75 CNS
786-0 renal = test system: 786-0 renal
KM12 colon = test system: KM12 colon
IGROV1 ovarian = test system: IGROV1 ovarian
SF-295 CNS = test system: SF-295 CNS
HCT-116 colon = test system: HCT-116 colon
UACC-257 melanoma = test system: UACC-257 melanoma
LOX IMVI melanoma = test system: LOX IMVI melanoma
SF-268 CNS = test system: SF-268 CNS
SW-620 colon = test system: SW-620 colon
OVCAR-4 ovarian = test system: OVCAR-4 ovarian
OVCAR-8 ovarian = test system: OVCAR-8 ovarian
U251 CNS = test system: U251 CNS
SR leukemia = test system: SR leukemia
HT29 colon = test system: HT29 colon
NCI-H460 lung = test system: NCI-H460 lung
COLO 205 colon = test system: COLO 205 colon
MDA-MB-231 breast = test system: MDA-MB-231 breast
HL-60(TB) leukemia = test system: HL-60(TB) leukemia
NCI-H522 lung = test system: NCI-H522 lung
HS 578T breast = test system: HS 578T breast
UO-31 renal = test system: UO-31 renal
SF-539 CNS = test system: SF-539 CNS
HCT-15 colon = test system: HCT-15 colon
RXF 393 renal = test system: RXF 393 renal
SK-OV-3 ovarian = test system: SK-OV-3 ovarian
HOP-92 NSCLC = test system: HOP-92 NSCLC
MDA-MB-435 = test system: MDA-MB-435
EKVX NSCLC = test system: EKVX NSCLC
A549 NSCLC = test system: A549 NSCLC
A498 renal = test system: A498 renal
OVCAR-3 ovarian = test system: OVCAR-3 ovarian
MCF7 breast = test system: MCF7 breast
MOLT-4 leukemia = test system: MOLT-4 leukemia
K-562 leukemia = test system: K-562 leukemia
RPMI-8226 leukemia = test system: RPMI-8226 leukemia
CCRF-CEM leukemia = test system: CCRF-CEM leukemia
UACC-62 melanoma = test system: UACC-62 melanoma
HCC-2998 colon = test system: HCC-2998 colon
NCI-H23 lung = test system: NCI-H23 lung
TK-10 renal = test system: TK-10 renal
SK-MEL-2 melanoma = test system: SK-MEL-2 melanoma
DU-145 prostate = test system: DU-145 prostate
SNB-19 CNS = test system: SNB-19 CNS
BT-549 breast = test system: BT-549 breast
NCI-H226 lung = test system: NCI-H226 lung
SK-MEL-28 melanoma = test system: SK-MEL-28 melanoma
OVCAR-5 ovarian = test system: OVCAR-5 ovarian

**Q.** What does the source list for `CCN(CC)c1ccc2c(c1)Oc1nc(N)c(C#N)c(N)c1C2Sc1ccc(SC)cc1` (configuration not stated)?
**A.** GI50 (HOP-62 NSCLC): 1760 nM; TGI (HOP-62 NSCLC): 3260 nM; GI50 (MALME-3M melanoma): 2380 nM; TGI (MALME-3M melanoma): 4720 nM; GI50 (ACHN renal): 1680 nM; TGI (ACHN renal): 3040 nM; GI50 (T-47D breast): 1740 nM; TGI (T-47D breast): 3940 nM; GI50 (NCI/ADR-RES ovarian): 2390 nM; TGI (NCI/ADR-RES ovarian): 6130 nM; GI50 (M14 melanoma): 1740 nM; TGI (M14 melanoma): 3470 nM; GI50 (PC-3 prostate): 1410 nM; TGI (PC-3 prostate): 2810 nM; GI50 (SK-MEL-5 melanoma): 1650 nM; TGI (SK-MEL-5 melanoma): 3010 nM; GI50 (SNB-75 CNS): 1560 nM; TGI (SNB-75 CNS): 3170 nM; GI50 (786-0 renal): 1750 nM; TGI (786-0 renal): 3190 nM; GI50 (KM12 colon): 1660 nM; TGI (KM12 colon): 3460 nM; GI50 (IGROV1 ovarian): 1570 nM; TGI (IGROV1 ovarian): 3370 nM; GI50 (SF-295 CNS): 1670 nM; TGI (SF-295 CNS): 3120 nM; GI50 (HCT-116 colon): 1460 nM; TGI (HCT-116 colon): 2810 nM; GI50 (UACC-257 melanoma): 3230 nM; TGI (UACC-257 melanoma): 6220 nM; GI50 (LOX IMVI melanoma): 1390 nM; TGI (LOX IMVI melanoma): 2750 nM; GI50 (SF-268 CNS): 1690 nM; TGI (SF-268 CNS): 3440 nM; GI50 (SW-620 colon): 1880 nM; TGI (SW-620 colon): 3680 nM; GI50 (OVCAR-4 ovarian): 1750 nM; TGI (OVCAR-4 ovarian): 3400 nM; GI50 (OVCAR-8 ovarian): 2080 nM; TGI (OVCAR-8 ovarian): 4430 nM; GI50 (U251 CNS): 1350 nM; TGI (U251 CNS): 2700 nM; GI50 (SR leukemia): 436 nM; TGI (SR leukemia): 3870 nM; GI50 (HT29 colon): 2330 nM; TGI (HT29 colon): 4610 nM; GI50 (NCI-H460 lung): 1800 nM; TGI (NCI-H460 lung): 3690 nM; GI50 (COLO 205 colon): 1840 nM; TGI (COLO 205 colon): 3550 nM; GI50 (MDA-MB-231 breast): 1540 nM; TGI (MDA-MB-231 breast): 3070 nM; GI50 (HL-60(TB) leukemia): 1970 nM; TGI (HL-60(TB) leukemia): 5150 nM; GI50 (NCI-H522 lung): 2420 nM; TGI (NCI-H522 lung): 4310 nM; GI50 (HS 578T breast): 2150 nM; TGI (HS 578T breast): 7100 nM; GI50 (UO-31 renal): 1510 nM; TGI (UO-31 renal): 2840 nM; GI50 (SF-539 CNS): 1640 nM; TGI (SF-539 CNS): 3000 nM; GI50 (HCT-15 colon): 1590 nM; TGI (HCT-15 colon): 3070 nM; GI50 (RXF 393 renal): 1660 nM; TGI (RXF 393 renal): 3310 nM; GI50 (SK-OV-3 ovarian): 2160 nM; TGI (SK-OV-3 ovarian): 3960 nM; GI50 (HOP-92 NSCLC): 1720 nM; TGI (HOP-92 NSCLC): 3430 nM; GI50 (MDA-MB-435): 1860 nM; TGI (MDA-MB-435): 3580 nM; GI50 (EKVX NSCLC): 528 nM; TGI (EKVX NSCLC): 1970 nM; GI50 (A549 NSCLC): 1940 nM; TGI (A549 NSCLC): 3500 nM; GI50 (A498 renal): 1880 nM; TGI (A498 renal): 3440 nM; GI50 (OVCAR-3 ovarian): 1730 nM; TGI (OVCAR-3 ovarian): 3170 nM; GI50 (MCF7 breast): 1600 nM; TGI (MCF7 breast): 3650 nM; GI50 (MOLT-4 leukemia): 1330 nM; TGI (MOLT-4 leukemia): 4600 nM; GI50 (K-562 leukemia): 2330 nM; TGI (K-562 leukemia): 5690 nM; GI50 (RPMI-8226 leukemia): 2500 nM; TGI (RPMI-8226 leukemia): 6560 nM; GI50 (CCRF-CEM leukemia): 1270 nM; TGI (CCRF-CEM leukemia): 5020 nM; GI50 (UACC-62 melanoma): 1480 nM; TGI (UACC-62 melanoma): 2960 nM; GI50 (HCC-2998 colon): 1960 nM; TGI (HCC-2998 colon): 3470 nM; GI50 (NCI-H23 lung): 1580 nM; TGI (NCI-H23 lung): 3160 nM; GI50 (TK-10 renal): 2590 nM; TGI (TK-10 renal): 4100 nM; GI50 (SK-MEL-2 melanoma): 2480 nM; TGI (SK-MEL-2 melanoma): 5510 nM; GI50 (DU-145 prostate): 1820 nM; TGI (DU-145 prostate): 3210 nM; GI50 (SNB-19 CNS): 1520 nM; TGI (SNB-19 CNS): 2900 nM; GI50 (BT-549 breast): 1420 nM; TGI (BT-549 breast): 2780 nM; GI50 (NCI-H226 lung): 1530 nM; TGI (NCI-H226 lung): 2890 nM; GI50 (SK-MEL-28 melanoma): 2050 nM; TGI (SK-MEL-28 melanoma): 3910 nM; GI50 (OVCAR-5 ovarian): 2370 nM; TGI (OVCAR-5 ovarian): 4750 nM
